Entries after “also recorded” stand apart in the source; their conditions may differ. Where a SMILES comes first, the peptide text is derived from it. Bridges are numbered along the chain shown (N, C = ends). [ ]: non-standard residue; d: D form. AllylGly = C=CC[C@H](N)C(=O)O
Test system: ileum
Assay: Ileum relaxation assay ex vivo
Parameters: species or system rat
Conditions: 10^−11 to 10^−5 M, after contraction with carbachol
Procedure: The functional ileum bioassay was carried out as described in detail elsewhere. (Van der Poorten, O., Van Den Hauwe, R., Eiselt, E., Betti, C., Guillemyn, K., Chung, N. N., Hall, F., Bihel, F., Schiller, P. W., Tourwé, D., Sarret, P., Gendron, L, . . . Ballet, S. (2017). X-Space Screening of Dermorphin-Based Tetrapeptides through Use of Constrained Arylazepinone and Quinolinone Scaffolds. ACS medicinal chemistry letters, 8(11), 1177-1182) Briefly, rats were euthanized, and 2 cm ileum segments were dissected out before removal of extraneous fat and connective tissue.
The ileum was then mounted under 0.5-g tension in a 10 mL organ bath containing warmed (37° C.) and oxygenated (95% O2, 5% CO2) Krebs solution (6.9 g/L NaCl, 0.145 g/L MgSO4, 2.1 g/L NaHCO3, 0.35 g/L KCl, 0.165 g/L KH2PO4, 1.98 g/L dextrose and 0.28 g/L CaCl2)). […] Contractions of the muscle were recorded via an isometric force transducer (159901A, Radnoti, Monrovia, CA, USA). […]
Each concentration of the compounds tested were followed by 2×15-min washout periods in Krebs solution to allow full relaxation. Dose-response curves were obtained with NT (8-13) (10^−11 to 10^−6) as standard for each ileum and for compound 34(10^−11 to 10^−5) and IC50 values were determined. […]
Data are expressed as mean±standard errors of the mean (SEM). […]

For `CC(C)C[C@H](NC(=O)[C@H](Cc1ccc(O)cc1)NC(=O)[C@@H]1CC=CC[C@H](N)C(=O)N[C@@H](CCCCN)C(=O)N[C@@H](CCCCN)C(=O)N1)C(=O)O` [compound 34, c[G(All)KKG(All)]YL] (H-[AllylGly]KK[AllylGly]YL-OH; staple 1-4), the Ileum relaxation was “doesn't impact gut motility; also recorded: No ileum”.
